This note sets out measurements from publication PMC7594840, “Identification of histone deacetylase inhibitors with (arylidene)aminoxy scaffold active in uveal melanoma cell lines” (Journal of Enzyme Inhibition and Medicinal Chemistry, 2020).

pIC50: −log10 of the molar value.

Assay [1] has as its system HeLa nuclear extract containing a mixture of HDACs. In words: HDAC Fluorimetric Assay/Drug Discovery Kit (BIOMOL) on HeLa nuclear extract. It counts as biochemical.
Description: The hydroxamic acids 1a–c, 2a–f and carboxylic acids 3a–c, 4a––e synthesised in this study were preliminarily tested on a HeLa nuclear extract containing a mixture of HDACs, by using a commercially available HDAC assay kit (BIOMOL). SAHA and Trichostatin A (TSA) were used as positive controls.
HDAC inhibitory activity of newly synthesised compounds was evaluated using an HDAC Fluorimetric Assay/Drug Discovery Kit (AK-500, BIOMOL). […] Reactions were stopped after 30 min by adding Fluor de Lys^TM Developer. After the addition of this developer, the plate was incubated at room temperature for 15 min, the fluorescence intensity of the wells was measured on a fluorometric plate reader with excitation set at 360 nm and emission detection set at 460 nm.
In a further assay the target is T1, HDAC1 (Homo sapiens, UniProt Q13547).
T1 construct: purchased BPS Bioscience
In words: Microfluidic chip-based HDAC inhibition assay (Calliper off-chip mobility shift), HDAC1. As to conditions: duplicate, 10-point dose curve, 3-fold serial dilution from 30 μM. It counts as biochemical.

In the next assay the target is T2, HDAC3 (Homo sapiens, UniProt O15379).
T2 construct: purchased BPS Bioscience
In words: Microfluidic chip-based HDAC inhibition assay (Calliper off-chip mobility shift), HDAC3. It counts as biochemical. As to conditions: duplicate, 10-point dose curve, 3-fold serial dilution from 30 μM; SAHA 15-point dose curve.

The target of another assay is T3, HDAC6 (Homo sapiens, UniProt Q9UBN7).
T3 construct: purchased BPS Bioscience
T3 sequence (Q9UBN7 1-1215): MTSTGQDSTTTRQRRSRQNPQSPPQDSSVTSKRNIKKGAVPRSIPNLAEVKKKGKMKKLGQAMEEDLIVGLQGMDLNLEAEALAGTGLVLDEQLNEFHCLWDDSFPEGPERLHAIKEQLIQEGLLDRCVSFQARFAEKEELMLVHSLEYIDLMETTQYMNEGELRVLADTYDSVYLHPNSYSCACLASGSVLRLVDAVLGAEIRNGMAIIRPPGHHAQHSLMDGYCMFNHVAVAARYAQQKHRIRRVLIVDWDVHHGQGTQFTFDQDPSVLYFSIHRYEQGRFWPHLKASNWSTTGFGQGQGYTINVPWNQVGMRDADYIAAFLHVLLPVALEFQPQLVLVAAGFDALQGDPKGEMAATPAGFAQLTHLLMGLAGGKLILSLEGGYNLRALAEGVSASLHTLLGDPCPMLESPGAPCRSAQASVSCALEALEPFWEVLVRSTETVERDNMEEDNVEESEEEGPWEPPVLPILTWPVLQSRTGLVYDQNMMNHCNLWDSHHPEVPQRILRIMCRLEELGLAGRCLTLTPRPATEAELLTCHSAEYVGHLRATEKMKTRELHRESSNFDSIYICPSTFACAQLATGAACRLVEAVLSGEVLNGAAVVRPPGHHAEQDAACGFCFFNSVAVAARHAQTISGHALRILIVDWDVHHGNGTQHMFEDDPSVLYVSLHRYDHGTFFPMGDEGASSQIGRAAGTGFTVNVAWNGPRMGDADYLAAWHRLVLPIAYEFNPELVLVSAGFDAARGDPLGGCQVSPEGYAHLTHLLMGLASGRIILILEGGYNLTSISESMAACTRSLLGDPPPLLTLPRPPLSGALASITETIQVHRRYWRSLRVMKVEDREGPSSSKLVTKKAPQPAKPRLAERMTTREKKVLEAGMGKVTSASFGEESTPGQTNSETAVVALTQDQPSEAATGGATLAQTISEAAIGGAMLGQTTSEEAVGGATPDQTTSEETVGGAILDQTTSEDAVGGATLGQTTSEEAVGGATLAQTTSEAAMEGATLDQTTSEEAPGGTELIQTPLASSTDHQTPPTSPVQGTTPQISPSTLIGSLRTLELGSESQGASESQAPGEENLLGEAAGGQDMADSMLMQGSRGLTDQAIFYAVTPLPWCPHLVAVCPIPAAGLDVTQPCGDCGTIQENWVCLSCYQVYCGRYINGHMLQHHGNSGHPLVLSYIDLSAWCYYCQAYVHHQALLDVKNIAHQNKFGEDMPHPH
In words: Microfluidic chip-based HDAC inhibition assay (Calliper off-chip mobility shift), HDAC6. Type of assay: biochemical. As to conditions: duplicate, 10-point dose curve, 3-fold serial dilution from 30 μM; SAHA 15-point dose curve; read-out: IC50 HDAC6.

Another assay deals with T4, HDAC8 (Homo sapiens, UniProt Q9BY41).
T4 construct: purchased BPS Bioscience
T4 sequence (Q9BY41 1-377): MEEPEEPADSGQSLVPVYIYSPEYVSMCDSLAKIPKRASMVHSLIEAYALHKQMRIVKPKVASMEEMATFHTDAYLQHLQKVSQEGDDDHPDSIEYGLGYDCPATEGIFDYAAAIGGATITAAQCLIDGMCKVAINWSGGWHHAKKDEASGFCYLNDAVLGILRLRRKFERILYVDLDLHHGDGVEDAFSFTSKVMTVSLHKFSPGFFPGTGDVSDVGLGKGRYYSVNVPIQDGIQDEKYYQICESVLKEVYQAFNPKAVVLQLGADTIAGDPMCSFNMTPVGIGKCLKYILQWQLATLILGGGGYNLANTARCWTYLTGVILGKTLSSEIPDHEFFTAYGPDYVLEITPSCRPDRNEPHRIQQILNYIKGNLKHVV
Nature of the assay: Microfluidic chip-based HDAC inhibition assay (Calliper off-chip mobility shift), HDAC8. Type of assay: biochemical. As to conditions: duplicate, 10-point dose curve, 3-fold serial dilution from 30 μM.

Assay [2] deals with 92.1 cells. Nature of the assay: MTT cell viability assay, UM cell line 92.1. It counts as cell-based, human. As to conditions: 72 h treatment, compared with SAHA and LD10. As to the method: (§1) The anti-proliferative effects of the most promising HDAC inhibitors, VS16, VS13, SN2, and LD10 were evaluated on human UM cell lines (92.1 and Mel270) and SAHA was used as a positive control. First, we assessed by MTT assay the cell viability after a 72 h treatment at different concentrations. […] Similar results were found for ovarian carcinoma cell line A2780 and to a lesser extent for SKOV3 (Supplementary Figure S2).
(§2) Figure 7. MTT. In vitro cytotoxicity at the 72 h time point of the different compounds in human UM cell lines 92.1 and Mel270, as assessed by the MTT cell viability assay. Data are expressed as percent of control with the DMSO solvent, which was used at the same amount present in the highest compound concentration. Error bars represent SD of quadruplicates. One representative experiment is shown.
(§3) Treatments with the compounds were performed with slight differences, according to the final use of the samples. For the cell viability assay with MTT, cells were seeded in 96-well flat-bottom plates in culture medium at 5 × 10^3 cells/well, whereas for cell cycle analysis and QRT-PCR cells were seeded in 24-well plates at 5 × 10^4 cells/well. The day after, a culture medium containing the appropriate amount of compounds or their solvent control DMSO was added, and treatments were carried out for the indicated time.
(§4) Cell viability after treatment was evaluated by a microculture tetrazolium reduction assay using MTT [3–(4,5-dimethyltiazol-2-yl) 2,5-diphenyltetrazolium bromide; Sigma]. At 72 h of treatment, 20 μl of MTT stock solution (2 mg/ml in PBS) were added to 200 μl cell cultures for an additional 4 h of incubation. MTT-containing culture medium was then removed and precipitated formazan was dissolved in 100 μl of DMSO. Results were read within 15 min in a microplate reader spectrometer at 540 nm (MEDGENIX 400 ATC, Medgenix Diagnostics), and the means of quadruplicates were calculated. Cell survival was expressed as a percentage of control samples.

The test system of assay [3] is Mel270 cells. Nature of the assay: MTT cell viability assay, UM cell line Mel270. It counts as cell-based, human. As to conditions: 72 h treatment, compared with SAHA and LD10. As to the method:
as §1, §2, §3, §4

For assay [4], the system named is 92.1 cells. Nature of the assay: Cell cycle distribution by flow cytometry (PI), 92.1 cells. Particulars: 10 µM compound, 48 h. It counts as cell-based, human. As to the method: (§5) We then investigated whether this anti-proliferative effect was due to the blockade in the G0/G1 phase of the cell cycle, as expected for SAHA[31].
(§6) Figure 8. Influence of the different compounds and DMSO solvent control on cell cycle distribution in UM 92.1 and Mel270 cells. The cells were treated with 10 µM compound for 48 h and cell cycle distribution was analysed by flow cytometry after fixation and staining with PI. The percentage of cells in each category is indicated. One representative experiment is shown.
as §3
(§7) To assess the cell cycle status of treated samples, after 48 h of incubation the cells were harvested, washed twice with cold PBS, and fixed in 70% ethyl alcohol at −20 °C overnight. The day after, the samples were washed with cold PBS and incubated for 20 min with propidium iodide (PI) staining solution (50 μg/ml PI, 0.05% Triton X-100, 0.2 mg/ml RNase A in PBS) at room temperature. Flow cytometric analysis of DNA content was performed using a FACScan flow cytometer with the CellQuest software (BD Biosciences). Gating on viable cells was performed using physical parameters and 10^4 gated events were acquired. Cell cycle analysis on the gated PI distribution was performed using Modfit software.

Assay [5] deals with Mel270 cells. Nature of the assay: Cell cycle distribution by flow cytometry (PI), Mel270 cells. Type of assay: cell-based, human. Particulars: 10 µM compound, 48 h. As to the method: as §5, §6, §3, §7

T2 sequence (O15379 whole entry): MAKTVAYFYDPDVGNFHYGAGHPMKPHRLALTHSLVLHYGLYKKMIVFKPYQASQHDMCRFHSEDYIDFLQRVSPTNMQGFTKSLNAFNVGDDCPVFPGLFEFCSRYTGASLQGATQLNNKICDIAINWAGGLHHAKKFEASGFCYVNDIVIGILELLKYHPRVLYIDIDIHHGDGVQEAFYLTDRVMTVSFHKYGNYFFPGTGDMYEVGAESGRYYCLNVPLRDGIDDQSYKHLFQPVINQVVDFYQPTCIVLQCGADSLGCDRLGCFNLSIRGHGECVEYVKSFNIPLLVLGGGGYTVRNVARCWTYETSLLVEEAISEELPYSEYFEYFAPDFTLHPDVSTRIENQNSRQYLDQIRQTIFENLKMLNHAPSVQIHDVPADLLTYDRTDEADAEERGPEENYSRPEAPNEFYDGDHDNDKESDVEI
T2 sequence (Q9Y618 395-489 partner limits assumed): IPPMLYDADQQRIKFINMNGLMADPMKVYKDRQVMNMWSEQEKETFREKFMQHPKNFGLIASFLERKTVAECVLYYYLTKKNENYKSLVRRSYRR
T1 sequence (Q13547 whole entry): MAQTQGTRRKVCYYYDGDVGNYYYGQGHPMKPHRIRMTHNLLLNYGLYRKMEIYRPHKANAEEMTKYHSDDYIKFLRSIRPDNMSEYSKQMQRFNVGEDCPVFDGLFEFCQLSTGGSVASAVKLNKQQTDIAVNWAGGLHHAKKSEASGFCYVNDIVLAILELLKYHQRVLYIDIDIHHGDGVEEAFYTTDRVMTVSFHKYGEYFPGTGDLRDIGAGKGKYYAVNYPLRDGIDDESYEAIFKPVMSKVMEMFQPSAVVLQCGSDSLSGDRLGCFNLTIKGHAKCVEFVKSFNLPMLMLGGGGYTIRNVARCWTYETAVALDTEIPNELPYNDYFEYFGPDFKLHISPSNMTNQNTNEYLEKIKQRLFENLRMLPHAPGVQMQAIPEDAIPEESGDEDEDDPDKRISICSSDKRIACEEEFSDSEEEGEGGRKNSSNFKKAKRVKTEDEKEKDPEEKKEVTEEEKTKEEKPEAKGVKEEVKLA
Excerpt for HDAC1: (§8) Test compounds were screened against human histone deacetylases (HDACs) 1, 3, 6, and 8 using the Calliper off-chip mobility shift assay technology. All HDACs were purchased from BPS Bioscience and four selective substrates were used according to the targeted isozyme. […] Buffers components, except for CR-3 (LabChip Coating Reagent 3, purchased from PerkinElmer, Product Number 760050) and Panobinostat (LBH589, purchased from ApexBio Technology)[35]^,[36] were purchased from Sigma Aldrich. […] (all purchased from Selleck Chemicals).
Excerpt for HDAC3: as §8
Excerpt for HDAC6: as §8
Excerpt for HDAC8: as §8

Consider `C/C(=N\OCCCCC(=O)NO)c1ccc(-c2ccccc2)cc1` [Compound 2e, (E)-5-(((1-([1,1′-biphenyl]-4-yl)ethylidene)amino)oxy)-N-hydroxypentanamide], for which the “folds more potent than SAHA” value in [1] (HeLa extract IC50 compared with SAHA) is 3- to 5 fold. Also, the negative-log IC50 (pIC50) in assay [1] (means of at least three experiments, SD <20% of the mean) was 7.28; at HDAC1, 6.23; at HDAC3 it was 7.37; at HDAC6, 6.39; at HDAC8, 4.86. Also, the “effect on cell viability (MTT)” value in the assay on 92.1 cells [2] and with Mel270 cells [3] was “stronger effect” each time. Moreover, the “effect on cell cycle distribution” value in the assay on 92.1 cells [4] and in the assay on Mel270 cells [5] was “efficiently block the cell cycle at the G0/G1 phase” in each case.
